Measured values: patent publication US20100190846A1, “MICROBICIDAL AGENT AND MICROBICIDAL COMPOSITION” (priority 2006, published 2010)

Columns and labels:
Assay in all cases: Agar dilution method microbicidal test
Format in all cases: cell-based
Staphylococcus aureus = test system: Staphylococcus aureus; as to Growth on agar plate: key: +: grew; −: did not grow
Summary of the method: (§1)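 Plate-based MIC determination: 10 μL aliquots of 100-fold diluted MHB cultures inoculated onto compound-containing BHI agar (0.25–4.0 mg/mL final), then incubated overnight (18 hours, 37° C).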

[1] = test system: Bacillus subtilis ATCC6633; conditions: Bacillus subtilis ATCC 6633; as to Growth on agar plate: key: +: grew; −: did not grow
Summary of the method: (§2)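 Agar dilution in BHI agar at final 4.0, 3.0, 2.0, 1.0, 0.5 and 0.25 mg/mL (DMSO stocks; catechin in sterile water). Bacteria grown in MHB, diluted to 10^6/mL, spotted onto plates, incubated 18 hours at 37° C. MIC is the lowest concentration inhibiting growth.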

Bacillus subtilis MB-32 = test system: Bacillus subtilis MB-32; as to Growth on agar plate: key: +: grew; −: did not grow
Summary of the method: as §2

Pseudomonas aeruginosa = test system: Pseudomonas aeruginosa; as to Growth on agar plate: key: +: grew; −: did not grow
Summary of the method: as §2

Salmonella sp. = test system: Salmonella sp. As to Growth on agar plate: key: +: grew; −: did not grow.
Summary of the method: as §2

Streptococcus pyogenes = test system: Streptococcus pyogenes; as to Growth on agar plate: key: +: grew; −: did not grow
Summary of the method: as §1

Enterococcus faecalis = test system: Enterococcus faecalis; also: key: +: grew; −: did not grow
Summary of the method: as §2

catechin [reference compound] was tested, and the “Growth on agar plate” value (Staphylococcus aureus; 0.25 mg/mL) was “+”, the “Growth on agar plate” value (Staphylococcus aureus; 0.5 mg/mL) was “+” and the “Growth on agar plate” value (Staphylococcus aureus; 1.0 mg/mL) was “−”. The “Growth on agar plate” value (Staphylococcus aureus; 2.0 mg/mL) was “−”, the “Growth on agar plate” value (Staphylococcus aureus; 3.0 mg/mL) was “−” and the “Growth on agar plate” value (Staphylococcus aureus; 4.0 mg/mL) was “−”. For the same substance, the MIC (Staphylococcus aureus; BHI agar, 37° C., 18 hours) was 1000 µg/mL, the “Growth on agar plate” value ([1]; 0.25 mg/mL) was “+” and the “Growth on agar plate” value ([1]; 0.5 mg/mL) was “+”. The “Growth on agar plate” value ([1]; 1.0 mg/mL) was “+”, the “Growth on agar plate” value ([1]; 2.0 mg/mL) was “+” and the “Growth on agar plate” value ([1]; 3.0 mg/mL) was “−”. For the same substance, the “Growth on agar plate” value ([1]; 4.0 mg/mL) was “−”, the MIC ([1]; BHI agar, 37° C., 18 hours) was 3000 µg/mL and the “Growth on agar plate” value (Bacillus subtilis MB-32; 0.25 mg/mL) was “+”. For the same substance, the “Growth on agar plate” value (Bacillus subtilis MB-32; 0.5 mg/mL) was “+”, the “Growth on agar plate” value (Bacillus subtilis MB-32; 1.0 mg/mL) was “+” and the “Growth on agar plate” value (Bacillus subtilis MB-32; 2.0 mg/mL) was “−”. The “Growth on agar plate” value (Bacillus subtilis MB-32; 3.0 mg/mL) was “−”, the “Growth on agar plate” value (Bacillus subtilis MB-32; 4.0 mg/mL) was “−” and the MIC (Bacillus subtilis MB-32; BHI agar, 37° C., 18 hours) was 2000 µg/mL. For the same substance, the “Growth on agar plate” value (Pseudomonas aeruginosa; 0.25 mg/mL) was “+”, the “Growth on agar plate” value (Pseudomonas aeruginosa; 0.5 mg/mL) was “+” and the “Growth on agar plate” value (Pseudomonas aeruginosa; 1.0 mg/mL) was “−”. The “Growth on agar plate” value (Pseudomonas aeruginosa; 2.0 mg/mL) was “−”, the “Growth on agar plate” value (Pseudomonas aeruginosa; 3.0 mg/mL) was “−” and the “Growth on agar plate” value (Pseudomonas aeruginosa; 4.0 mg/mL) was “−”. For the same substance, the MIC (Pseudomonas aeruginosa; BHI agar, 37° C., 18 hours) was 1000 µg/mL, the “Growth on agar plate” value (Salmonella sp.; 0.25 mg/mL) was “+” and the “Growth on agar plate” value (Salmonella sp.; 0.5 mg/mL) was “+”. For the same substance, the “Growth on agar plate” value (Salmonella sp.; 1.0 mg/mL) was “+”, the “Growth on agar plate” value (Salmonella sp.; 2.0 mg/mL) was “−” and the “Growth on agar plate” value (Salmonella sp.; 3.0 mg/mL) was “−”. The “Growth on agar plate” value (Salmonella sp.; 4.0 mg/mL) was “−”, the MIC (Salmonella sp.; BHI agar, 37° C., 18 hours) was 2000 µg/mL and the “Growth on agar plate” value (Streptococcus pyogenes; 0.25 mg/mL) was “+”. The “Growth on agar plate” value (Streptococcus pyogenes; 0.5 mg/mL) was “+”, the “Growth on agar plate” value (Streptococcus pyogenes; 1.0 mg/mL) was “+” and the “Growth on agar plate” value (Streptococcus pyogenes; 2.0 mg/mL) was “−”. The “Growth on agar plate” value (Streptococcus pyogenes; 3.0 mg/mL) was “−”, the “Growth on agar plate” value (Streptococcus pyogenes; 4.0 mg/mL) was “−” and the MIC (Streptococcus pyogenes; BHI agar, 37° C., 18 hours) was 2000 µg/mL. For the same substance, the “Growth on agar plate” value (Enterococcus faecalis; 0.25 mg/mL) was “+”, the “Growth on agar plate” value (Enterococcus faecalis; 0.5 mg/mL) was “+” and the “Growth on agar plate” value (Enterococcus faecalis; 1.0 mg/mL) was “+”. For the same substance, the “Growth on agar plate” value (Enterococcus faecalis; 2.0 mg/mL) was “+”, the “Growth on agar plate” value (Enterococcus faecalis; 3.0 mg/mL) was “+” and the “Growth on agar plate” value (Enterococcus faecalis; 4.0 mg/mL) was “+”.
